Structures are written as SMILES. Where two headings read alike, the source gives them in different places.

This is an account of results in patent US20240262835A1, “PRMT5 INHIBITING COMPOUNDS AND USES THEREOF” (ANTENGENE DISCOVERY LIMITED, priority 2023, published 2024).

Series [1] can be described thus: Liver microsome metabolic stability (LMS) assay, human. For orientation: Liver microsomes are vesicles of endoplasmic reticulum, rich in cytochrome P450 enzymes.
The nature of series [2]: Liver microsome metabolic stability (LMS) assay, cynomolgus monkey.
For series [3] the following is noted: rat liver microsome, scaled to liver.
A short description of series [4]: Liver microsome metabolic stability (LMS) assay, dog. The conditions noted are these: dog, microsomes.
Series [5] can be described thus: in vitro. As to conditions: rat, microsomes.
Series [6] in a line: in vitro. The conditions noted are these: cynomolgus monkey, hepatocytes.
Experimental: 1) 10 mM test compounds were provided.
(§1) 2) 30 mM positive control stock solutions: Dissolved accurate amount of positive control compounds in dimethyl sulfoxide (DMSO).
(§2) 3) 1000× Stock Solution: Diluted 10 mM test compounds and 30 mM positive control compounds to 1 mM and 3 mM with DMSO in 96-well plates.
(§3) 4) 100× Dosing Solution: Diluted 1 mM test compounds and 3 mM positive control compounds to 100 μM and 300 μM dosing solutions with ACN.
(§4) 5) Preparation of 0.5×10^6/mL cells suspension: cryopreserved cells were thawed, isolated and suspended in Incubation Medium, then diluted with pre-warmed Incubation Medium to 0.5×10^6 cells/mL.
(§5) 6) Add 198 μL of pre-warmed cell suspensions in 96-well plates.
(§6) 7) Preparation of Quenching Plate: Transfer 125 μL of stop solution in a set of pre-labeled 96-well plates.
(§7) 8) Spike 2 μL dosing solution to each well of 96-well plates in duplicate.
(§8) 9) For TO Samples, mix to achieve a homogenous suspension for about 1 min, then immediately transfer 25 μL of each sample into well containing 125 μL of ice-cold stop solution followed by mixing.
(§9) 10) Incubate all plates at 37° C. in a 95% humidified incubator at 5% CO2 to start the reactions with constant shaking.
(§10) 11) At 15, 30, 60 and 90 min, mix samples and then transfer 25 μL of each sample at each time point to well containing 125 μL of ice-cold stop solution followed by mixing.
(§11) 12) Medium Control (MC) sample plates (labeled as TO-MC and T90-MC) are prepared in the same way as cell incubation except that medium was used instead of cell suspension.
(§12) 13) At each corresponding time point, stop the reactions by removing the plates from incubator and mixing with 125 μL of ice-cold stop solution.
(§13) 14) Vortex the plates immediately on a plate shaker at 600 rpm for 10 minutes. Then, centrifuge all sample plates at 3220×g for 20 min at 4° C.
(§14) 15) After centrifugation, 80 μL/well of supernatant in the sample plates are transferred to another set of pre-labeled 96-well plates which containing 240 μL of ultra pure water according to the plate map.
(§15) 16) Analytical plates are sealed and store at 4° C. until LC-MS/MS analysis.
(§16) The remaining percents of test articles after incubation were calculated by the follow equations:
(§17) Use the following equation of first order kinetics to calculate T1/2 and CLint:
Series [7] is described as follows: in vitro. The conditions noted are these: rat, hepatocytes.
Experimental: 1) 10 mM test compounds were provided.
as §1, §2, §3, §4, §5, §6, §7, §8, §9, §10, §11, §12, §13, §14, §15, §16, §17
Series [8] concerns cryopreserved hepatocytes. As to conditions: human.
Experimental: 1) 10 mM test compounds were provided.
as §1, §2, §3, §4, §5, §6, §7, §8, §9, §10, §11, §12, §13, §14, §15, §16, §17
For series [9], the system named is cryopreserved hepatocytes. The conditions noted are these: dog.
Experimental: 1) 10 mM test compounds were provided.
as §1, §2, §3, §4, §5, §6, §7, §8, §9, §10, §11, §12, §13, §14, §15, §16, §17
Series [10] concerns cryopreserved hepatocytes. As to conditions: rat.
Experimental: 1) 10 mM test compounds were provided.
as §1, §2, §3, §4, §5, §6, §7, §8, §9, §10, §11, §12, §13, §14, §15, §16, §17
A short description of series [11]: in vitro. As to conditions: human, hepatocytes.
Experimental: 1) 10 mM test compounds were provided.
as §1, §2, §3, §4, §5, §6, §7, §8, §9, §10, §11, §12, §13, §14, §15, §16, §17
Series [12] has as its system cryopreserved hepatocytes. The conditions noted are these: cynomolgus monkey.
Experimental: 1) 10 mM test compounds were provided.
as §1, §2, §3, §4, §5, §6, §7, §8, §9, §10, §11, §12, §13, §14, §15, §16, §17
Series [13] can be described thus: in vitro. The conditions noted are these: dog, hepatocytes.
Experimental: 1) 10 mM test compounds were provided.
as §1, §2, §3, §4, §5, §6, §7, §8, §9, §10, §11, §12, §13, §14, §15, §16, §17
Series [14] is described as follows: in vitro. As to conditions: mouse, hepatocytes.
The subject of series [15] is cryopreserved hepatocytes. The conditions noted are these: mouse.
Series [16] in a line: Hepatic metabolic stability (HMS) assay, mouse hepatocytes. As to conditions: mouse, cryopreserved hepatocytes.
The test system of series [17] is cryopreserved hepatocytes. The description is as above. The conditions noted are these: mouse, hepatocytes.
A short description of series [18]: Hepatic metabolic stability (HMS) assay, human hepatocytes. As to conditions: human, cryopreserved hepatocytes.
Experimental: 1) 10 mM test compounds were provided.
as §1, §2, §3, §4, §5, §6, §7, §8, §9, §10, §11, §12, §13, §14, §15, §16, §17
In series [19] the test system is cryopreserved hepatocytes. The series is described as above. As to conditions: human, hepatocytes.
Experimental: 1) 10 mM test compounds were provided.
as §1, §2, §3, §4, §5, §6, §7, §8, §9, §10, §11, §12, §13, §14, §15, §16, §17
Series [20] can be described thus: Hepatic metabolic stability (HMS) assay, dog hepatocytes. As to conditions: dog, cryopreserved hepatocytes.
Experimental: 1) 10 mM test compounds were provided.
as §1, §2, §3, §4, §5, §6, §7, §8, §9, §10, §11, §12, §13, §14, §15, §16, §17
Series [21] concerns cryopreserved hepatocytes. The description is as above. As to conditions: dog, hepatocytes.
Experimental: 1) 10 mM test compounds were provided.
as §1, §2, §3, §4, §5, §6, §7, §8, §9, §10, §11, §12, §13, §14, §15, §16, §17
Series [22] is described as follows: Hepatic metabolic stability (HMS) assay, rat hepatocytes. As to conditions: rat, cryopreserved hepatocytes.
Experimental: 1) 10 mM test compounds were provided.
as §1, §2, §3, §4, §5, §6, §7, §8, §9, §10, §11, §12, §13, §14, §15, §16, §17
The test system of series [23] is cryopreserved hepatocytes. The description is as above. The conditions noted are these: rat, hepatocytes.
Experimental: 1) 10 mM test compounds were provided.
as §1, §2, §3, §4, §5, §6, §7, §8, §9, §10, §11, §12, §13, §14, §15, §16, §17
The nature of series [24]: Hepatic metabolic stability (HMS) assay, cynomolgus monkey hepatocytes. The conditions noted are these: cynomolgus monkey, cryopreserved hepatocytes.
Experimental: 1) 10 mM test compounds were provided.
as §1, §2, §3, §4, §5, §6, §7, §8, §9, §10, §11, §12, §13, §14, §15, §16, §17
Series [25] concerns cryopreserved hepatocytes. Described as above. As to conditions: cynomolgus monkey, hepatocytes.
Experimental: 1) 10 mM test compounds were provided.
as §1, §2, §3, §4, §5, §6, §7, §8, §9, §10, §11, §12, §13, §14, §15, §16, §17

`C[C@]12CC[C@H]3[C@@H](CCC4=CC(=O)CC[C@@]43C)[C@@H]1CC[C@@H]2O` [Ref. 4, Testosterone, reference compound]: the “CLint (mic) H” value in series [1] (human liver microsome) came out at 79.0 µL/min/mg. In series [1] (human, microsomes), this compound came in with a half-life at 1 μM of 17.6 min. Besides, the “CLint (mic) C” value in [2] (cynomolgus monkey liver microsome) was 152.3 µL/min/mg. In series [2] (cynomolgus monkey, microsomes), this compound displayed an intrinsic clearance (CLint scaled) at 1 μM of 206 mL/min/kg and a half-life at 1 μM of 9.1 min. Moreover, in series [3], the “CLint (liver) R” value is 3782.4 mL/min/kg. Besides, in [4], the CLint scaled at 1 μM stood at 58.7 mL/min/kg, the half-life at 1 μM came out at 34 min and the intrinsic clearance (microsomal CLint) at 1 μM was determined as 40.8 µL/min/mg. For the same compound, in series [5], the half-life is 0.7 min.
For the compound `CCOc1ccc2ccc(=O)oc2c1` [Ref. 1, 7-Ethoxycoumarin], the CLint scaled at 3 μM came to 554 mL/min/kg in series [6]; 184 mL/min/kg in series [7]; 201 mL/min/kg in series [11]; 3580 mL/min/kg in [13]; 7700 mL/min/kg in [14]. The half-life at 3 μM in series [6] is 9 min; in series [7], 35.3 min; in series [11], 19.2 min; in [14] it was 2.1 min. The “CLint (hep) H” value in series [8] came out at 72.1 μL/min/10^6. For the same compound, the “CLint (hep) D” value in [9] is recorded as 521.1 μL/min/10^6. Also, the “CLint (hep) R” value in [10] was 39.2 μL/min/10^6. In [12], the “CLint (hep) C” value stood at 154.0 μL/min/10^6. The “CLint (hep) M” value in [15] is 647.9 μL/min/10^6.
`O=c1ccc2ccc(O)cc2o1` [Ref. 2, 7-Hydroxycoumarin, reference compound]: the CLint scaled at 3 μM in [16] came out at 7220 mL/min/kg; in series [18], 1020 mL/min/kg; in series [20] it was 3270 mL/min/kg; in series [22], 3170 mL/min/kg; in series [24], 2360 mL/min/kg. For the same compound, the half-life at 3 μM came out at 2.3 min in series [16]; 3 min in series [18]; 2.9 min in [20]; 2 min in series [22]; 2.1 min in [24]. Besides, the “CLint (hep) M” value in series [17] is reported as 608.1 μL/min/10^6. In addition, in [19], the “CLint (hep) H” value is recorded as 367.6 μL/min/10^6. For the same compound, in series [21], the “CLint (hep) D” value is listed as 475.1 μL/min/10^6. Further, in series [23], the “CLint (hep) R” value is listed as 678.0 μL/min/10^6. Further, in [25], the “CLint (hep) C” value is listed as 655.8 μL/min/10^6.

Broadly, the half-life is how long it takes for the measured level to halve. A word on the CLint scaled: it is a measure of how fast metabolising enzymes remove a compound, apart from limits set by blood flow. The term microsomal CLint denotes a measure of how fast metabolising enzymes remove a compound, apart from limits set by blood flow.
